Activity calls are given as the source filed them.
Assays:
[1] = biological target: 5-hydroxytryptamine receptor 2A (Mus musculus, UniProt P35363); type: functional, cell-based;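 also: CHO-K1 cells with tagged receptor and beta-arrestin; agonist potency measured as compound-induced activation of the receptor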
Mu-type opioid receptor = Mu-type opioid receptor (Homo sapiens, UniProt P35372); type: functional, cell-based;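 also: U2OS cells with beta-arrestin recruitment to OPRM1 by beta-gal complementation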
Sequence of Mu-type opioid receptor (P35372 whole entry): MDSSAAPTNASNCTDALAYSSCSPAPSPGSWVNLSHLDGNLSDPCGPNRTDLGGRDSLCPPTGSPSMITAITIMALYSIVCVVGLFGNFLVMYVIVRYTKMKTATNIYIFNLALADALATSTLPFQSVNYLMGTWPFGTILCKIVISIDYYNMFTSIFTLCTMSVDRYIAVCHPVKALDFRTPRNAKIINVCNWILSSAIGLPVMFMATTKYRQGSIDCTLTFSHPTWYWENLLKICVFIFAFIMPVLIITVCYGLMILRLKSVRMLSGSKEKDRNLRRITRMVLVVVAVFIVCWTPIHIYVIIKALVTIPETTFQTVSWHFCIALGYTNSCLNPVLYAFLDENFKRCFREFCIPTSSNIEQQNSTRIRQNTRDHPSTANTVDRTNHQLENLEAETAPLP

[2] = biological target: Fructose-bisphosphate aldolase (Mycobacterium tuberculosis, UniProt P9WQA3); assay: Fluorescence-based biochemical high throughput dose response assay for inhibitors of the fructose-bisphosphate aldolase (FBA) of M. tuberculosis.; type: functional
[3] = A549 cell cytotoxicity, dose response, cytotoxicity control, plate reader, cherry-pick, antagonist series (AID 743412); type: functional, cell-based
[4] = blockade of melanocortin 4 receptor signaling – cell-based, plate reader, cherry pick, counter-screen for LGR2 antagonist project, dose response (AID 743444); type: functional;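 also: transfected HEK 293 cells stimulated with alpha-MSH peptide; potency of inhibitors of the alpha-MSH evoked signal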
[5] = biological target: T1, Heat shock factor protein 1 (Mus musculus, UniProt P38532); assay: decrease of HSF1-responsive luciferase luminescence – cell-based, NIH3T3, dose retest, confirmation (AID 2382); type: functional;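 also: NIH3T3 fibroblasts with HSF1-driven luciferase reporter stressed by proteasome inhibitor MG132; luminescence from HSF1-driven luciferase expression after 8 hours of MG132 stress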
T1 sequence (P38532 whole entry): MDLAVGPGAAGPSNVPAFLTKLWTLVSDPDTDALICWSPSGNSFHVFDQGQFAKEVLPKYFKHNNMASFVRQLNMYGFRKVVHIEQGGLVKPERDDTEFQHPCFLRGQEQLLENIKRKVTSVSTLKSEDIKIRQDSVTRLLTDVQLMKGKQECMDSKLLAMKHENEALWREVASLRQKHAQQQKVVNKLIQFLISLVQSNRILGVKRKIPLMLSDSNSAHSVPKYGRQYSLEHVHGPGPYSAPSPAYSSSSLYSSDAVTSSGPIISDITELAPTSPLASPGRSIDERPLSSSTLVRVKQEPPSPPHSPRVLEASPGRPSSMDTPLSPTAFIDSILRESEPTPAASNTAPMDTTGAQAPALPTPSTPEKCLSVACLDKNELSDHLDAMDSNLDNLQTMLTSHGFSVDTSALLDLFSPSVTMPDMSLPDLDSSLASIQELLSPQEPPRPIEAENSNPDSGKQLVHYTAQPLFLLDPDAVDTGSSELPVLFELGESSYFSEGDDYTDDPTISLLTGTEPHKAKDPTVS

[6] = viability loss in HEK293 cells – cell-based, plate reader, cherry-picked samples, cytotoxicity control, dose response (AID 743446); type: functional
[7] = Luminescence Cell-Based Dose Response HTS to Identify Activators of Luciferase Translation or Activity in H4 […] Cells. [Related pubchem assays: 1829 (Project Summary), 1814 (Primary HTS)]; type: functional
H4 = assay: Luminescence Cell-Based Dose Response HTS to Identify Activators of 5'UTR Stem-Loop Driven Prion Protein mRNA Translation in H4 Neuroglioblastoma Cells. [Related pubchem assays: 1829 (Project Summary), 1814 (Primary HTS)]; type: functional; settings: Homo sapiens
[8] = Luminescence Cell-Based Dose Confirmation HTS to Identify Activators of 5'UTR Stem-Loop Driven Alpha-Synuclein mRNA Translation in H4 Neuroglioblastoma Cells. [Related pubchem assays: 1829 (Project Summary), 1814 (Primary HTS)]; type: functional
[9] = blockers of bursicon-stimulated LGR2 cAMP reporter – cell-based, HEK293, CRE-luciferase reporter, cherry pick, set 2, dose response (AID 743343); type: functional;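 also: transfected cells were stimulated with diluted bursicon conditioned medium after compound addition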
[10] = HEK-293T cell viability reduction – luminescence, B-cell screen hits, cytotoxicity control for BCR NF-kB inhibitor project, dose response (AID 489021); type: functional, cell-based;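 also: HEK-293T cells carrying an NF-kB luciferase reporter; cells exposed to compound for about 14 hours before viability readout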
[11] = viability of PTEN-deleted HCT116 cells – cell-based, HCT116 PTEN knockout, dose response (AID 1047); type: functional;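 also: HCT116 colon tumor cells with PTEN knocked out; cells exposed to compound for 60 hours before readout; potency for loss of cell viability measured by luminescence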
[12] = biological target: Hepatocyte nuclear factor 4-alpha (Homo sapiens, UniProt P41235); type: functional, cell-based;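 also: biochemical luminescence-based dose-response counterscreen measuring inhibition of HNF4 dimerization, run alongside a screen for blockers of ABHD5–perilipin-5 interaction; split luciferase complementation of HNF4 fusion proteins in cell lysate measuring dimerization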
[13] = viability of HCT116 lacking mutant beta-catenin – cell-based, human colon tumor, dose response (AID 1045); type: functional;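 also: HCT116 colon tumor cells with beta catenin knocked out; cells exposed to compound for 60 hours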
Cytochrome P450 3A4 = Cytochrome P450 3A4 (Homo sapiens, UniProt P08684);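 also: CYP3A4 tested as one member of a cytochrome P450 panel screen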
fMet-Leu-Phe receptor = fMet-Leu-Phe receptor (Homo sapiens, UniProt P21462); assay: formyl peptide receptor binders – dose response (AID 519); type: functional
Sequence of fMet-Leu-Phe receptor (P21462 whole entry, the tested form may be a part): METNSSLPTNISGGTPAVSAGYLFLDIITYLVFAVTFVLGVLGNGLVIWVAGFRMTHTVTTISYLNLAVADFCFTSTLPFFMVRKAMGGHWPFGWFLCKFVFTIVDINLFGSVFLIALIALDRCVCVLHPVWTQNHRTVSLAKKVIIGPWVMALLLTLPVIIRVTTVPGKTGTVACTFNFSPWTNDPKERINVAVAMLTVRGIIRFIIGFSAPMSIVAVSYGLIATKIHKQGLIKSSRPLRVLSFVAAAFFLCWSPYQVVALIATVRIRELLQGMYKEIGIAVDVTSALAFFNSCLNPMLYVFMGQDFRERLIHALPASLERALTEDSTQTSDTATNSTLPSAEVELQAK

[14] = biological target: T2, Polyadenylate-binding protein 1 (Homo sapiens, UniProt P11940); assay: MLLE domain peptide-binding blockers, IC50 – biochemical, fluorescence polarization, FITC-PAM2 peptide, dose response (AID 602259); type: functional; settings: read-out: IC50_Mean
T2 sequence (P11940 whole entry, the tested form may be a part): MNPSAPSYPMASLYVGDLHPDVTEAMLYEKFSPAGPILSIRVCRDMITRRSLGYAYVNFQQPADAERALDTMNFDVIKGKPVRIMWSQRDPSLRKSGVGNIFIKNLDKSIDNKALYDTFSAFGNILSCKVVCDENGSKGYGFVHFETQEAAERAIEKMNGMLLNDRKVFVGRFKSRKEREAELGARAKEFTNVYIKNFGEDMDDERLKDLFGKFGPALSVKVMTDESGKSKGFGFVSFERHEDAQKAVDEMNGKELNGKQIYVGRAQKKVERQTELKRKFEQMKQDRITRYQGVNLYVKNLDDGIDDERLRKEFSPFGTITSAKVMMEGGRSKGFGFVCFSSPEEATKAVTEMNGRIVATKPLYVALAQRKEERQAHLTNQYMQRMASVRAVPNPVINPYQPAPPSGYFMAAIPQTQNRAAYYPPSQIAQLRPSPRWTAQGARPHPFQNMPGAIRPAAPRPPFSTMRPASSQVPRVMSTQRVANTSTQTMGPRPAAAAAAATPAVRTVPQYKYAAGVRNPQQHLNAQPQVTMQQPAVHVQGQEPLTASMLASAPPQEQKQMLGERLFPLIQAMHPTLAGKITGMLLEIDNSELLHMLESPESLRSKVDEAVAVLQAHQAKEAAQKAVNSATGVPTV

[15] = biological target: Botulinum neurotoxin type F (Clostridium botulinum, UniProt P30996); assay: High-throughput multiplex microsphere dose response for inhibitors of toxin protease, specifically Botulinum neurotoxin light chain F protease, compounds from Cherry Pick 02.; type: functional; settings: read-out: EC50_MICROM
Sequence of Botulinum neurotoxin type F (P30996 1-436 limits assumed): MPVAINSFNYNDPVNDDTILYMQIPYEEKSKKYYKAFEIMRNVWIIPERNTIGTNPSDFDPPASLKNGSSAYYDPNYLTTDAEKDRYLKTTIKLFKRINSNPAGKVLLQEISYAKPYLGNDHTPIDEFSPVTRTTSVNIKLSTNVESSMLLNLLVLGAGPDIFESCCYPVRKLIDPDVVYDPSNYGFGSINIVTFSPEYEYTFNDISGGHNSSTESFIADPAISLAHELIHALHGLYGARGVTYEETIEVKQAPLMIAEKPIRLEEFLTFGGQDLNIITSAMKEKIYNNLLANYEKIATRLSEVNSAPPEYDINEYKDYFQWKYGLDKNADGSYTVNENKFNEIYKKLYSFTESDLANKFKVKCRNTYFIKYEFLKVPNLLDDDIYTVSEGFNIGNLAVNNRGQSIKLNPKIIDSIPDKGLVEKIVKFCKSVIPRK

[16] = biological target: T2, Polyadenylate-binding protein 1; assay: MLLE binding blockers, Cy5 peptide tracer – biochemical, fluorescence polarization, Cy5-PAM2 peptide, secondary, miRNA deadenylation inhibitor project, dose response (AID 602260); type: functional; settings: read-out: IC50_Mean
Steroidogenic factor 1 = Steroidogenic factor 1 (Homo sapiens, UniProt Q13285); assay: Counterscreen for inverse agonists of the liver receptor homolog-1 (LRH-1; NR5A2): Luminescence-based cell-based high throughput dose response assay to identify inverse agonists of the Steroidogenic Factor 1 Nuclear Receptor (SF1; NR5A1).; type: functional
Sequence of Steroidogenic factor 1 (Q13285 whole entry): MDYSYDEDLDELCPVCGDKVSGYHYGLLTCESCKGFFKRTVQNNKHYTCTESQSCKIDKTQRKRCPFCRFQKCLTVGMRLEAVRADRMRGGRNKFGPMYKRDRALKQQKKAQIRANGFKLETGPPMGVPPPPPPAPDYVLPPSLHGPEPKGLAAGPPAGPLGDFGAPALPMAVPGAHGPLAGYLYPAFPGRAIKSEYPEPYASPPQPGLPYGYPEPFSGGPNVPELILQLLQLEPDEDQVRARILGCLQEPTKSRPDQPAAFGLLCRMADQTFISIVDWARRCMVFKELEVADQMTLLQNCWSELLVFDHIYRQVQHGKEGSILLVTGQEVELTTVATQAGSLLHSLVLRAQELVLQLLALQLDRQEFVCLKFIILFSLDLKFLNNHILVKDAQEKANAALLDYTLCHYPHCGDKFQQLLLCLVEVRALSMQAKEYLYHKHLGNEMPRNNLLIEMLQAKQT

[17] = nonselective StAR promoter luciferase inhibitors – cell-based, luminescence, luciferase reporter, counter-screen for LRH-1 inverse agonist project, dose response (AID 651969); type: functional
[18] = biological target: Luciferin 4-monooxygenase (Photinus pyralis, UniProt P08659); assay: inhibition of purified Photinus pyralis luciferase – biochemical, luminescence, dose response (AID 1891)
Sequence of Luciferin 4-monooxygenase (P08659 whole entry): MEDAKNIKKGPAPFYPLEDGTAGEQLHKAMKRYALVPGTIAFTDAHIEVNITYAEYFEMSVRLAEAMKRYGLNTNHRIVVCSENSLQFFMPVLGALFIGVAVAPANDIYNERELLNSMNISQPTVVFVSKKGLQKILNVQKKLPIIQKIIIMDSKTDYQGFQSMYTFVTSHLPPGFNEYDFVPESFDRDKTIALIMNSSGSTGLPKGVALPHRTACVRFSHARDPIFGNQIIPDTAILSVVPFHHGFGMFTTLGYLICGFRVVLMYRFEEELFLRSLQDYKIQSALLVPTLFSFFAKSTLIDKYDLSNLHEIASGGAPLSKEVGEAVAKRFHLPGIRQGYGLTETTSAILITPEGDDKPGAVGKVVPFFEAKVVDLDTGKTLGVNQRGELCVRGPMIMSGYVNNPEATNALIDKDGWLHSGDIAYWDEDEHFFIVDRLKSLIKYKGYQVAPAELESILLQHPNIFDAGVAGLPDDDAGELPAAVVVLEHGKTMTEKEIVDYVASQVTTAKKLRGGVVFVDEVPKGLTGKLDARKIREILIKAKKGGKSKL

[19] = biological target: Nuclear receptor subfamily 5 group A member 2 (Homo sapiens, UniProt O00482); type: functional, cell-based;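 also: HEK293T cells transfected with LRH-1 and a StAR promoter luciferase reporter; potency for inhibitors that lower LRH-1 driven reporter light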
[20] = Luminescence Cell-Based Dose Confirmation HTS to Identify Inhibitors of Platelet Dense Granule Release. [Related pubchem assays: 1663 (Primary HTS), 1678 (Summary of Project)]; type: functional
[21] = biological target: DNA dC->dU-editing enzyme APOBEC-3G (Homo sapiens, UniProt Q9HC16); type: functional;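 also: Dose-response counterscreen measuring inhibition of APOBEC3G DNA deaminase activity, run while confirming APOBEC3A inhibitors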
Sequence of DNA dC->dU-editing enzyme APOBEC-3G (Q9HC16 whole entry): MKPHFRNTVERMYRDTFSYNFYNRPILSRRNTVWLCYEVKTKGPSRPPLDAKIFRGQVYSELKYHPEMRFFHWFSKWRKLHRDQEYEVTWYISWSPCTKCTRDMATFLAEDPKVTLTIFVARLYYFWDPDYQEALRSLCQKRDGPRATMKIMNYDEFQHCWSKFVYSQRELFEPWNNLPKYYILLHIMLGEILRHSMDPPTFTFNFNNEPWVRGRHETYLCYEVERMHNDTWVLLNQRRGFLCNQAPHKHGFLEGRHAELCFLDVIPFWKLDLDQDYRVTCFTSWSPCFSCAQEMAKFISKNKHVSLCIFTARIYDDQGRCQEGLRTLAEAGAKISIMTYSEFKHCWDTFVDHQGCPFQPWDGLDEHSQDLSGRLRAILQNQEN

Beta-galactosidase = Beta-galactosidase (Escherichia coli, UniProt Q8VNN2); assay: Dose response counterscreen for EBI2 assay utilizing the enzyme, b-galactosidase.; type: functional
Sequence of Beta-galactosidase (Q8VNN2 whole entry): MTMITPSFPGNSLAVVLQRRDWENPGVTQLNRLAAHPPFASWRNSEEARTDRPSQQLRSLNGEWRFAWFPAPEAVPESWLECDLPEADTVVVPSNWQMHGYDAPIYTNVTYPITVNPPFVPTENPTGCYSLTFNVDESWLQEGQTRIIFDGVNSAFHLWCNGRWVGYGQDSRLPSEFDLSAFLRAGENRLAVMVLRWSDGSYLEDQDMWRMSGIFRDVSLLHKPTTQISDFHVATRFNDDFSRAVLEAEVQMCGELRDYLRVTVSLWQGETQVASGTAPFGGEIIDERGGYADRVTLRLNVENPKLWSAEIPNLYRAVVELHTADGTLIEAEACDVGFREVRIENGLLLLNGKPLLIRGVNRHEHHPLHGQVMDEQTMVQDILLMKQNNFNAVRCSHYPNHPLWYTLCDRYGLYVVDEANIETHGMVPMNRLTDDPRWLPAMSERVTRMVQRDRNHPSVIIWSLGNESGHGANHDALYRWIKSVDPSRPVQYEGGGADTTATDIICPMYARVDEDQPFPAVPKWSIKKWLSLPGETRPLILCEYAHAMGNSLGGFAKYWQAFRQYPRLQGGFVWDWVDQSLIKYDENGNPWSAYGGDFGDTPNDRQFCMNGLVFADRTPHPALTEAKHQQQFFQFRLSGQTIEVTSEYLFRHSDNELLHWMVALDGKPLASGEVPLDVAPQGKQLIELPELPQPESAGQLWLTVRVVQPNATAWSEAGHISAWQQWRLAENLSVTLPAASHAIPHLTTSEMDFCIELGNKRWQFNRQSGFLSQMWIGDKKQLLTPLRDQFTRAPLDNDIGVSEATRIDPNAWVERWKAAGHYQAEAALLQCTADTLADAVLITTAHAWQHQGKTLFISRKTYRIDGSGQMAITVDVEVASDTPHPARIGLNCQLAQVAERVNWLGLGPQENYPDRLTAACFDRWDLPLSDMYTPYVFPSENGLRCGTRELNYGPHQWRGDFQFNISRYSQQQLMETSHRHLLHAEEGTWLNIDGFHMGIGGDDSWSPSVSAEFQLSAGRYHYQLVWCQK

[22] = biological target: DNA dC->dU-editing enzyme APOBEC-3A (Homo sapiens, UniProt P31941); assay: Dose Response confirmation of small molecule APOBEC3A DNA Deaminase Inhibitors via a fluorescence-based single-stranded DNA deaminase assay. [Related pubchem assays (depositor defined):AID493011, AID493024]; type: functional
Sequence of DNA dC->dU-editing enzyme APOBEC-3A (P31941 whole entry): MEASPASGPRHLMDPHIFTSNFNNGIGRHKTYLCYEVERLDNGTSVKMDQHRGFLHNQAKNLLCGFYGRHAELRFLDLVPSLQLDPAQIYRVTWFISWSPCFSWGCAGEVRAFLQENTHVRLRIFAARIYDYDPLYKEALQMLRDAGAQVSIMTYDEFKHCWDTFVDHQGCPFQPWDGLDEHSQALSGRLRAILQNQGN

[23] = biological target: Nuclear receptor subfamily 0 group B member 1 (Homo sapiens, UniProt P51843); type: functional, cell-based;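 also: HEK293T cells transfected with SF-1 and DAX-1 plus StAR promoter luciferase reporter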
cells = type: functional, cell-based

Sequence of 5-hydroxytryptamine receptor 2A (P35363 whole entry): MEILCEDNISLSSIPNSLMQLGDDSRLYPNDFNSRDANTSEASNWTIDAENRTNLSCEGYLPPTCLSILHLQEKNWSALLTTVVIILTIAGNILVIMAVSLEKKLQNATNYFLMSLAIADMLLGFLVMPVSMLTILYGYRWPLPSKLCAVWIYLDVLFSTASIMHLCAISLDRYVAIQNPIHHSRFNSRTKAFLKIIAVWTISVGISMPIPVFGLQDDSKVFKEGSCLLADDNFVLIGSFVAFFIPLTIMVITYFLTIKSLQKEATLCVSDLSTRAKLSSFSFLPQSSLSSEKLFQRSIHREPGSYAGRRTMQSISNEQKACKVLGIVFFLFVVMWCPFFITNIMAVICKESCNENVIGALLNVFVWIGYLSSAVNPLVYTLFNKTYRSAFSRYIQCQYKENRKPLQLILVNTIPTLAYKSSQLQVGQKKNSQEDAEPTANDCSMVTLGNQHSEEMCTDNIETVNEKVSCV

Q: With `c1ccc(N2CCN(Cc3ccsc3)CC2)nc1` as the compound, how does the EC50 [1] read?
A: 0.125 µM (active)

Q: And the EC50 (Mu-type opioid receptor)?
A: 92.4 µM (inactive)

Q: For `O=C1NC(=O)c2cc(NC(=O)C3CCCO3)ccc21` (configuration not stated), which IC50 [2] is on record?
A: 2.39 µM (active)

Q: For `CN(C(=O)COC(=O)c1nc(Cl)c(Cl)c(Cl)c1Cl)C1CCS(=O)(=O)C1` (configuration not stated), which AC50 [3] is on record?
A: 7.97 µM (active)

Q: And the AC50 [4]?
A: 22.7 µM (active)

Q: And the EC50 [5]?
A: 13.1 µM (active)

Q: And the AC50 [6]?
A: 6.09 µM (active)

Q: What about the EC50 [7] of the same compound?
A: > 120 µM (not active)

Q: And the EC50 (H4)?
A: > 120 µM (not active)

Q: And the EC50 [8]?
A: > 120 µM (not active)

Q: What about the AC50 [9] of the same compound?
A: 15.8 µM (active)

Q: Which IC50 [10] does the source give for `CC1=CC(C)(C)Nc2ccc(OC(=O)C(C)N3C(=O)c4ccccc4C3=O)cc21` (configuration not stated) here?
A: > 80 µM (inactive)

Q: What about the EC50 [11] of the same compound?
A: 8.18 µM (active)

Q: What about the IC50 [12] of the same compound?
A: 11.1 µM (inactive)

Q: And the EC50 [13]?
A: 7.55 µM (active)

Q: For `COCCCN1C(=O)C(O)=C(C(=O)c2ccc(OC)cc2C)C1c1cccnc1` (configuration not stated), which AC50 (Cytochrome P450 3A4) is on record?
A: 20 µM (inconclusive)

Q: And the Ki (fMet-Leu-Phe receptor)?
A: > 66.7 µM (inactive)

Q: With `Cc1cc2cc(CNC(=O)c3cccc([N+](=O)[O-])c3)ccc2[nH]1` as the compound, how does the IC50 [14] read?
A: > 66 µM (inactive)

Q: What about the EC50 [15] of the same compound?
A: > 20 µM (inactive)

Q: What about the IC50 [16] of the same compound?
A: > 66 µM (inactive)

Q: Which IC50 (Steroidogenic factor 1) does the source give for `COc1ccc(C2(C)NC(=O)N(CC(=O)NCCC3=CCCCC3)C2=O)cc1OC` (configuration not stated) here?
A: 5.24 µM (active)

Q: And the IC50 [17]?
A: 35.9 µM (inactive)

Q: And the EC50 [18]?
A: > 112 µM (not active)

Q: And the IC50 [19]?
A: 35.9 µM (inactive)

Q: What about the EC50 [20] of the same compound?
A: > 112 µM (not active)

Q: For `CCOc1cc(CN2CCN(c3ncccn3)CC2)ccc1OC`, which EC50 [1] is on record?
A: 76.1 µM (inactive)

Q: What about the EC50 (Mu-type opioid receptor) of the same compound?
A: 92.5 µM (inactive)

Q: For `COc1ccccc1CCNC(=O)C1CCN(C(=O)/C=C/c2ccccc2)CC1`, which IC50 [21] is on record?
A: 14.6 µM (active)

Q: And the IC50 (Beta-galactosidase)?
A: > 80 µM (inactive)

Q: What about the IC50 [22] of the same compound?
A: 13.9 µM (active)

Q: With `CCOC(=O)c1c(SCC(=O)Nc2nccs2)nc(C)c(C)c1C` as the compound, how does the IC50 [23] read?
A: > 67.5 µM (inactive)

Q: What about the IC50 (cells) of the same compound?
A: > 67.5 µM (inactive)

From ChEMBL document CHEMBL1201862, “PubChem BioAssay data set” (2004)
